These are literature values, as cited in patent publication US5547668A, “Conjugates of folate anti-effector cell antibodies” (The Board of Trustees of The University of Illinois, priority 1995, dated 1996).

This series relates to FR.

With `CN(Cc1cnc2nc(N)nc(N)c2n1)c1ccc(C(=O)N[C@@H](CCC(=O)O)C(=O)O)cc1` [MTX, methotrexate], the “affinity for the FR” value was “does not bind to MTX with high affinity”.

As for `C#CCN(Cc1ccc2nc(N)[nH]c(=O)c2c1)c1ccc(C(=O)N[C@@H](CCC(=O)O)C(=O)O)cc1` [CB3717, N^10-propargyl-5,8-dideazafolic acid], the “affinity for the FR” value was “bind with high affinity”.

As to `C#CCN(Cc1ccc2nc(C)[nH]c(=O)c2c1)c1ccc(C(=O)N[C@@H](CCC(=O)O)C(=O)O)cc1` [ICI-198,583, 2-deamino-2-methyl-N^10-propargyl-5,8-dideazafolic acid], the “affinity for the FR” value is given as “bind with high affinity”.
